According to patent publication US20240358693A1, “METHODS OF TREATING PAIN” (Aisa Pharma, Inc., priority 2023, published 2024):

Tested on: participants with SSc-RP
Assay: Scleroderma Health Assessment Questionnaire (SHAQ): disability indices and visual analog scales
Format: in vivo, human
Settings: PP Population, Part A, SSc patients, sensitivity analysis
Text: The standard, validated, patient reported outcome measures tool for SSc patients, the Scleroderma Health Assessment Questionnaire (SHAQ), will be used to assess the participant qualify of life. Details are attached in the Appendix. The participant quality of life will be scored, and a disability index calculated for each questionnaire completed by the patient at Screening and each in-clinic visit. The absolute change in participant quality of life from baseline to the end of each dosing period will be calculated similar to frequency data as before.
The SHAQ includes a Raynaud's VAS, which will be reported at screening and each in-clinic visit. The absolute change in Raynaud-VAS, assessed by the participants response to the SHAQ question ‘In the past 7 days, how much have your Raynaud's interfered with your daily activities?’ at baseline and the end of each dosing period will be calculated similar to frequency data as before.
The SHAQ is used to calculate a Disability Index to assess the participant qualify of life. The eight categories assessed by the Disability Index are 1) dressing and grooming, 2) arising, 3) eating, 4) walking, 5) hygiene, 6) reach, 7) grip, and 8) common daily activities. For each of these categories, patients report the amount of difficulty they have in performing two or three specific activities.
There are four possible responses for the Disability Index questions: • Without any difficulty=0 • With some difficulty=1 • With much difficulty=2 • Unable to do=3. • The highest score reported by the patient for any component question of the eight categories determines the score for that category. • If a component question is left blank or the response is too ambiguous to assign a score, then the score for that category is determined by the remaining completed question(s). • If all component questions are blank or if more than one answer is given, then follow up with the respondent is required. • If the respondent's mark is between the response columns, then move it to the closest one. If it's directly between the two, move it to the higher one.
Each of the disability items on the SHAQ has a companion aids/devices variable that is used to record what type(s) of assistance, if any, the participant uses for his/her usual activities. These variables (see below) are coded as follows: • 0=No assistance is needed. • 1=A special device is used by the patient in his/her usual activities. • 2=The patient usually needs help from another person. • 3=The patient usually needs BOTH a special device AND help from another person.
The scoring variables and scoring rules permit the computation of two disability indices, the Standard Disability Index and the Alternative Disability Index.
This question results in a new set of category scores that are computed by adjusting the score for each category, if necessary, based on the patient's use of an aid or device or assistance for that category. If either devices and/or help from another person are checked for a category, the score is set to “2”, unless the score is already “3” (i.e., scores of “0” or “1” are increased to “2”). For example, if the highest score for the dressing category is “1”, and the patient says they use a device for dressing, the computed category score would be “2”. The sum of the computed categories scores is then calculated and divided by the number of categories answered. This gives a score in the 0 to 3 range.
The aid and device variables are not used to calculate the alternative disability index; it is calculated by adding the scores for each of the categories and dividing by the number of categories answered. This gives a score in the 0 to 3 range.
The standard, validated, patient reported outcome measures tool for SSc patients, the SHAQ, was collected at the time points specified in the study schedules (FIG. 2 and FIGS. 4A and 4B) to assess the participant's quality of life. The SHAQ included a Raynaud's VAS that will also be reported separately.

[1] = Day 12 vs baseline, Subject 01-110 Day 12 score excluded
[2] = In-Clinic Visit (Day 12), Subject 01-110 Day 12 score excluded

## COCCOC(=O)C1=C(C)NC(C)=C(C(=O)OC/C=C/c2ccccc2)C1c1cccc([N+](=O)[O-])c1 (stereo not drawn) [Pooled Cilnidipine]
Day 12 vs baseline
  SHAQ Visual Analogue Scale - Raynaud’s, Change from Baseline, Min: −2.40
  SHAQ Visual Analogue Scale - Raynaud’s, Change from Baseline, Q1: −1.050
  SHAQ Visual Analogue Scale - Raynaud’s, Change from Baseline, Q3: 0.350
  SHAQ Visual Analogue Scale - Raynaud’s, Percent Change from Baseline, Max: 136.4%
  SHAQ Visual Analogue Scale - Raynaud’s, Percent Change from Baseline, Mean: −18.62%
  SHAQ Visual Analogue Scale - Raynaud’s, Percent Change from Baseline, Median: −33.33%
  SHAQ Visual Analogue Scale - Raynaud’s, Percent Change from Baseline, Min: −100.0%
  SHAQ Visual Analogue Scale - Raynaud’s, Percent Change from Baseline, Q1: −68.57%
  SHAQ Visual Analogue Scale - Raynaud’s, Percent Change from Baseline, Q3: −2.27%
[1]
  SHAQ Visual Analogue Scale - Breathing Problems, Change from Baseline, Max: 0.60
  SHAQ Visual Analogue Scale - Breathing Problems, Change from Baseline, Mean: −0.388
  SHAQ Visual Analogue Scale - Breathing Problems, Change from Baseline, Median: 0.000
  SHAQ Visual Analogue Scale - Breathing Problems, Change from Baseline, Min: −2.00
  SHAQ Visual Analogue Scale - Breathing Problems, Change from Baseline, Q1: −1.000
  SHAQ Visual Analogue Scale - Breathing Problems, Change from Baseline, Q3: 0.150
  SHAQ Visual Analogue Scale - Breathing Problems, Percent Change from Baseline, Max: 150.0%
  SHAQ Visual Analogue Scale - Breathing Problems, Percent Change from Baseline, Mean: −0.22%
  SHAQ Visual Analogue Scale - Breathing Problems, Percent Change from Baseline, Median: −16.00%
  SHAQ Visual Analogue Scale - Breathing Problems, Percent Change from Baseline, Min: −100.0%
  SHAQ Visual Analogue Scale - Breathing Problems, Percent Change from Baseline, Q1: −66.67%
  SHAQ Visual Analogue Scale - Breathing Problems, Percent Change from Baseline, Q3: 31.58%
In-Clinic Visit (Day 12)
  SHAQ Alternative Disability Index, Max: 1.25
  SHAQ Alternative Disability Index, Mean: 0.391
  SHAQ Alternative Disability Index, Median: 0.188
  SHAQ Alternative Disability Index, Min: 0.00
  SHAQ Alternative Disability Index, Q1: 0.000
  SHAQ Alternative Disability Index, Q3: 0.750
  SHAQ Visual Analogue Scale - Finger Ulcers, Max: 1.90
  SHAQ Visual Analogue Scale - Finger Ulcers, Mean: 0.463
  SHAQ Visual Analogue Scale - Finger Ulcers, Median: 0.000
  SHAQ Visual Analogue Scale - Finger Ulcers, Min: 0.00
  SHAQ Visual Analogue Scale - Finger Ulcers, Q1: 0.000
  SHAQ Visual Analogue Scale - Finger Ulcers, Q3: 0.900
  SHAQ Visual Analogue Scale - Intestinal Problems, Max: 3.80
  SHAQ Visual Analogue Scale - Intestinal Problems, Mean: 0.975
  SHAQ Visual Analogue Scale - Intestinal Problems, Median: 0.300
  SHAQ Visual Analogue Scale - Intestinal Problems, Min: 0.00
  SHAQ Visual Analogue Scale - Intestinal Problems, Q1: 0.000
  SHAQ Visual Analogue Scale - Intestinal Problems, Q3: 1.700
  SHAQ Visual Analogue Scale - Overall Disease Severity, Max: 5.20
  SHAQ Visual Analogue Scale - Overall Disease Severity, Mean: 1.475
  SHAQ Visual Analogue Scale - Overall Disease Severity, Median: 1.300
  SHAQ Visual Analogue Scale - Overall Disease Severity, Min: 0.00
  SHAQ Visual Analogue Scale - Overall Disease Severity, Q1: 0.350
  SHAQ Visual Analogue Scale - Overall Disease Severity, Q3: 1.650
  SHAQ Visual Analogue Scale - Pain, Max: 4.30
  SHAQ Visual Analogue Scale - Pain, Mean: 1.875
  SHAQ Visual Analogue Scale - Pain, Median: 1.550
  SHAQ Visual Analogue Scale - Pain, Min: 0.00
  SHAQ Visual Analogue Scale - Pain, Q1: 0.550
  SHAQ Visual Analogue Scale - Pain, Q3: 3.250
  SHAQ Visual Analogue Scale - Raynaud’s, Max: 4.40
  SHAQ Visual Analogue Scale - Raynaud’s, Mean: 1.900
  SHAQ Visual Analogue Scale - Raynaud’s, Median: 1.250
  SHAQ Visual Analogue Scale - Raynaud’s, Min: 0.00
  SHAQ Visual Analogue Scale - Raynaud’s, Q1: 0.700
  SHAQ Visual Analogue Scale - Raynaud’s, Q3: 3.450
[2]
  SHAQ Visual Analogue Scale - Breathing Problems, Max: 6.30
  SHAQ Visual Analogue Scale - Breathing Problems, Mean: 1.213
  SHAQ Visual Analogue Scale - Breathing Problems, Median: 0.200
  SHAQ Visual Analogue Scale - Breathing Problems, Min: 0.00
  SHAQ Visual Analogue Scale - Breathing Problems, Q1: 0.000
  SHAQ Visual Analogue Scale - Breathing Problems, Q3: 1.500
